This note sets out measurements from US11339193B2, “CDP protein secretion inhibitors” (KEZAR LIFE SCIENCES, priority 2018, dated 2022).

The structures appear in SMILES notation. Numbered stars: 1 amine (or outer) side, 2 acyl side, 3 side chain; on linkers, the order of the positions; unused ones are H or OH. Square brackets hold non-standard residues; d marks the D form. Peptide text beside a SMILES is read from it. NMeAla(5-Cl-benzothien-3-yl) = CN[C@@H](Cc1csc2ccc(Cl)cc12)C(=O)O; Butanoyl(2R-oxy,4-CN) = N#CCC[C@@H](O)C(=O)O; X22 = CCCC[C@@H](C)C[C@H](N[*:1])C(=O)[*:2]; Abu(4,4,4-F3) = N[C@@H](CC(F)(F)F)C(=O)O; X12 = O=C([C@H](CC1=CCCC1)N[*:1])[*:2]; Ala(cPent) = N[C@@H](CC1CCCC1)C(=O)O; NMeCha = CN[C@@H](CC1CCCCC1)C(=O)O; NMeF = CN[C@@H](Cc1ccccc1)C(=O)O; Cha = N[C@@H](CC1CCCCC1)C(=O)O; NMeL = CN[C@@H](CC(C)C)C(=O)O; NMeA = CN[C@@H](C)C(=O)O; Nva = CCC[C@H](N)C(=O)O; dLac = C[C@@H](O)C(=O)O; Abu = CC[C@H](N)C(=O)O

Common to all, as to type: cell-based
The test system of assay [1] is Prl-ss+10aa/Gaussia Luciferase. As to the kind of experiment: Prl-ss-Gluc assay (constitutively active or 24 hr Dox inducible). The following applies: Flp-In 293 T-REx cells, 24 hours; read-out: Prl IC50. From the text: Constitutively Active Prl-ss-Gluc Assay
Flp-In 293 T-REx™ cells were transfected with pcDNA™5/FRT plasmid inserted with cDNA encoding Gaussia Luciferase fused to the 3′ end of cDNA encoding Prl signal sequence plus 10 amino acids (N-[…]-C) (SEQ ID NO:4). Transfected cells were selected for resistance to the selectable markers Hygromycin and Blasticidin to create a stable cell line that constitutively expressed the Prlss+10aa/Gaussia Luciferase fusion protein. The day before assay, cells were trypsinized and plated in 384-well tissue culture plates. The next day, culture media was removed from the wells and replaced with fresh media. Compound dilutions in DMSO/media were added to the wells and incubated at 37° C., 5% CO2.
24 hr Dox Inducible Prl-ss-Gluc Assay
(§1) Flp-In 293 T-REx™ cells were transfected with pcDNA™5/FRT/TO plasmid inserted with cDNA encoding Gaussia Luciferase fused to the 3′ end of cDNA encoding Prl signal sequence plus 10 amino acids (N-[…]-C) (SEQ ID NO:5). Transfected cells were selected for resistance to the selectable markers Hygromycin and Blasticidin to create a stable cell line that contained the Prl-ss+10aa/Gaussia Luciferase cDNA insert whose expression was regulated under the T-REx™ system. The day before assay, cells were trypsinized and plated in 384-well tissue culture plates. The next day, compound dilutions in DMSO/media containing doxycycline were added to the wells and incubated at 37° C., 5% CO2.

For assay [2], the system named is NCI-H929 multiple myeloma cell line. Kind of assay: H929 assay (cell viability, Celltiter-Glo). Particulars: Homo sapiens, NCI-H929; 48 hours, cell viability; read-out: H929 EC50. As for the experimental part: The human multiple myeloma cell line NCI-H929 was cultured in Advanced RPMI 1640 media (Gibco@) supplemented with 6% fetal bovine serum, 2 mM Glutamine, and 1× Penicillin/Streptomycin. On the day of assay, cells were resuspended in RPMI 1640 media supplemented with 10% fetal bovine serum, 2 mM Glutamine, and 1× Penicillin/Streptmycin and plated in 384-well tissue culture plates and treated with compound dilutions in DMSO/media. Plates were incubated at 37° C., 5% CO2 for 48 hours. After 48 hours, Celltiter-Glo@ (Promega) was added to each well and luciferase signal was quantified using Tecan Infinite M1000 Pro for cell viability determination.
For orientation: In ATP-based viability assays light output follows the ATP content of the culture.

For assay [3], the system named is PD1-ss+10aa/Gaussia Luciferase. Kind of assay: Dox induced PD1-ss-Gluc assay. The following applies: Flp-In 293 T-REx cells, doxycycline, 24 hours; read-out: PD1ss Gluc IC50.
From the text: Dox Induced PD1-ss-Gluc Assay
as §1, with “PD1” for “Prl”, “NO:3).” for “NO:5).”, “PD1-ss+10aa/Gaussia” for “Prl-ss+10aa/Gaussia”

Assay [4] concerns TNFα-FL/Gaussia Luciferase. As to the kind of experiment: Dox induced TNFα-FL-Gluc assay. The following applies: Flp-In 293 T-REx cells, doxycycline, 24 hours; read-out: TNFa FL Gluc IC50. An excerpt: Dox Induced TNFα-FL-Gluc Assay
Flp-In 293 T-REx™ cells were transfected with pcDNA™5/FRT/TO plasmid inserted with cDNA encoding Gaussia Luciferase fused to the 3′ end of cDNA encoding full length TNFα (amino acids 1-233). Transfected cells were selected for resistance to the selectable markers Hygromycin and Blasticidin to create a stable cell line that contained the TNFα-FL/Gaussia Luciferase cDNA insert whose expression was regulated under the T-REx™ system. The day before assay, cells were trypsinized and plated in 384-well tissue culture plates. The next day, compound dilutions in DMSO/media containing doxycycline were added to the wells and incubated at 37° C., 5% CO2.

A further assay has as its system HER3ss-Gluc. As to the kind of experiment: HER3ss assay. Particulars: HEK-293T T-rex cells, transient transfection, doxycycline, 24 h; read-out: HER3 ss IC50. As for the experimental part:
The mature domain of secreted luciferase from Gaussia princeps (GLuc) was cloned into pcDNA5/FRT/TO. The signal sequence plus four amino acids of the mature domain from HER3 ([…]) (SEQ ID NO:8) were cloned upstream of GLuc mature domain and used in transient transfection experiment. HEK-293T T-rex cells were cultured in Dulbecco's modified Eagle's medium with 10% FBS at 5% CO2. Cells were plated 1×10e6 cells per well in a 6-well plate and incubated for 6 h. Cells were transiently transfected with HER3ss-Gluc using Lipofectamine 2000 (Invitrogen). After overnight incubation, transfected cells were replated in a clear-bottomed, black 96-well plate at a density of 20,000 cells per well. Six hours after plating, the cells were treated with doxycycline (1 μg/ml) and increasing concentrations of the indicated compounds for 24 h. Secreted luciferase in the conditioned media was quantified by luminescence using the BioLux Gaussia Luciferase Assay Kit (New England Biolabs, Ipswich, Mass., USA) and a SpectraMax M5 plate reader (Molecular Devices).

Broadly, the IC50 is the concentration needed to halve the response being measured. By EC50 is commonly meant the midpoint of the concentration-response curve. As to `CCCC[C@@H](C)C[C@@H]1NC(=O)[C@H](CC2CCCCC2)N(C)C(=O)[C@H](CC)NC(=O)[C@H](CC(C)C)N(C)C(=O)[C@H](C[C@H](C)CCCC)NC(=O)[C@@H](CCC#N)OC(=O)[C@H](C)N(C)C1=O` [C-43] (cyclo([Abu][NMeCha][X22][NMeA][Butanoyl(2R-oxy,4-CN)][X22][NMeL])), the IC50 in assay [1] is 1530 nM; in assay [3], 67 nM; in assay [4], 211 nM. Also, the EC50 in assay [2] is 593 nM.
For `CCCC[C@@H](C)C[C@@H]1NC(=O)[C@H](CC2CCCCC2)N(C)C(=O)[C@H](CC(C)C)NC(=O)[C@H](CC(C)C)N(C)C(=O)[C@H](CC2CCCCC2)NC(=O)[C@@H](CCC#N)OC(=O)[C@H](C)N(C)C1=O` [C-45] (cyclo([Cha][NMeL]L[NMeCha][X22][NMeA][Butanoyl(2R-oxy,4-CN)])), the values for the IC50 in assay [1], in assay [3] and in assay [4] were 2500 nM, 248 nM and 911 nM, respectively. Besides, the EC50 in assay [2] is 4910 nM.
For `CCCC[C@@H](C)C[C@@H]1NC(=O)[C@H](CC2CCCCC2)N(C)C(=O)[C@H](CCC)NC(=O)[C@H](CC(C)C)N(C)C(=O)[C@H](C[C@H](C)CCCC)NC(=O)[C@@H](CCC#N)OC(=O)[C@H](C)N(C)C1=O` [C-44] (cyclo([NMeA][Butanoyl(2R-oxy,4-CN)][X22][NMeL][Nva][NMeCha][X22])), the IC50 in assay [1] was 740 nM; in assay [3], 37 nM; in assay [4], 109 nM. Further, the EC50 in assay [2] was determined as 376 nM.
For `CCCC[C@@H](C)C[C@@H]1NC(=O)[C@H](CC2CCCCC2)N(C)C(=O)[C@H](CC(C)C)NC(=O)[C@H](CC(C)C)N(C)C(=O)[C@H](C[C@H](C)CCCC)NC(=O)[C@@H](CCC#N)OC(=O)[C@H](C)N(C)C1=O` [C-18] (cyclo(L[NMeCha][X22][NMeA][Butanoyl(2R-oxy,4-CN)][X22][NMeL])), the EC50 in assay [2] amounted to 429 nM. The IC50 was 37 nM in assay [3] and 84 nM in assay [4].
Taken in the same sequence, the figures for `CCCC[C@@H](C)C[C@@H]1NC(=O)[C@H](Cc2ccccc2)N(C)C(=O)[C@H](CC(C)C)NC(=O)[C@H](CC(C)C)N(C)C(=O)[C@H](CC(C)C)NC(=O)[C@@H](C)OC(=O)[C@H](C)N(C)C1=O` [C-08] (HELM PEPTIDE1{L.[meF].[CCCC[C@@H](C)C[C@H](N[*:1])C(=O)[*:2]].[meA].[C[C@@H](O[*:1])C(=O)[*:2]].L.[meL]}$PEPTIDE1,PEPTIDE1,1:R1-7:R2$$$V2.0) were 4460 nM, 360 nM and 526 nM.
For `CCCC[C@@H](C)C[C@@H]1NC(=O)[C@H](CC2CCCCC2)N(C)C(=O)[C@H](CC(C)C)NC(=O)[C@H](CC(C)C)N(C)C(=O)[C@H](CC2=CCCC2)NC(=O)[C@@H](CCC#N)OC(=O)[C@H](C)N(C)C1=O` [C-55] (cyclo(L[NMeCha][X22][NMeA][Butanoyl(2R-oxy,4-CN)][X12][NMeL])) the same measures were 1870 nM, 119 nM and 464 nM.
Taken in the same sequence, the figures for `CCCC[C@@H](C)C[C@@H]1NC(=O)[C@H](CC2CCCCC2)N(C)C(=O)[C@H](CC(C)C)NC(=O)[C@H](CC(C)C)N(C)C(=O)[C@H](CCC)NC(=O)[C@@H](CCC#N)OC(=O)[C@H](C)N(C)C1=O` [C-19] (cyclo(L[NMeCha][X22][NMeA][Butanoyl(2R-oxy,4-CN)][Nva][NMeL])) were 5150 nM, 374 nM and 1390 nM.
Take `CCCC[C@@H](C)C[C@@H]1NC(=O)[C@H](CC2CCCCC2)N(C)C(=O)[C@H](CC(C)C)NC(=O)[C@H](CC(C)C)N(C)C(=O)[C@H](CC2CCCC2)NC(=O)[C@@H](CCC#N)OC(=O)[C@H](C)N(C)C1=O` [C-47] (cyclo([Ala(cPent)][NMeL]L[NMeCha][X22][NMeA][Butanoyl(2R-oxy,4-CN)])): the 50% effective concentration (EC50) in assay [2] came out at 6960 nM. Further, the IC50 in assay [3] came to 367 nM; in assay [4] it was 1130 nM.
With `CC(C)C[C@@H]1NC(=O)[C@H](Cc2csc3ccc(Cl)cc23)N(C)C(=O)[C@H](CC(C)C)NC(=O)[C@H](CC(C)C)N(C)C(=O)[C@H](CC(F)(F)F)NC(=O)[C@@H](CCC#N)OC(=O)[C@H](C)N(C)C1=O` [C-67] (cyclo(L[NMeA][Butanoyl(2R-oxy,4-CN)][Abu(4,4,4-F3)][NMeL]L[NMeAla(5-Cl-benzothien-3-yl)])), in assay [2], the EC50 turned out to be 4090 nM. The figures for the IC50 (in assay [3]; with HER3ss-Gluc; in assay [4]) were 397 nM, 9 nM and 754 nM, respectively.
With `CCCC[C@@H](C)C[C@@H]1NC(=O)[C@@H](C)OC(=O)[C@H](C)N(C)C(=O)[C@H](C(C)C)NC(=O)[C@H](Cc2ccccc2)N(C)C(=O)[C@H](CC(C)C)NC(=O)[C@H](CC(C)C)N(C)C1=O` [C-02] (HELM PEPTIDE1{L.[meF].V.[meA].[C[C@@H](O[*:1])C(=O)[*:2]].[CCCC[C@@H](C)C[C@H](N[*:1])C(=O)[*:2]].[meL]}$PEPTIDE1,PEPTIDE1,1:R1-7:R2$$$V2.0), the EC50 in assay [2] stood at 4060 nM. For the same molecule, the IC50 in assay [3] is 460 nM; in assay [4], 779 nM.
Taken in the same sequence, the figures for `CCCC[C@@H](C)C[C@@H]1NC(=O)[C@H](CC2CCCCC2)N(C)C(=O)[C@H](CC(C)C)NC(=O)[C@H](CC(C)C)N(C)C(=O)[C@H](CC(C)C)NC(=O)[C@@H](CCC#N)OC(=O)[C@H](C)N(C)C1=O` [C-21] (cyclo(L[NMeCha][X22][NMeA][Butanoyl(2R-oxy,4-CN)]L[NMeL])) were 3400 nM, 212 nM and 716 nM.
As to `CCCC[C@@H](C)C[C@@H]1NC(=O)[C@H](CC2CCCCC2)N(C)C(=O)[C@H](CC(C)C)NC(=O)[C@H](CC(C)C)N(C)C(=O)[C@H]([C@@H](C)CC)NC(=O)[C@@H](CCC#N)OC(=O)[C@H](C)N(C)C1=O` [C-61] (cyclo(I[NMeL]L[NMeCha][X22][NMeA][Butanoyl(2R-oxy,4-CN)])), in assay [2], the EC50 is 4560 nM. For the same molecule, the IC50 was 392 nM in assay [3] and 1890 nM in assay [4].
Taken in the same sequence, the figures for `CCCC[C@@H](C)C[C@@H]1NC(=O)[C@H](Cc2ccccc2)N(C)C(=O)[C@H](CC)NC(=O)[C@H](CC(C)C)N(C)C(=O)[C@H](C[C@H](C)CCCC)NC(=O)[C@@H](C)OC(=O)[C@H](C)N(C)C1=O` [C-05] (cyclo([Abu][NMeF][X22][NMeA][dLac][X22][NMeL])) were 1190 nM, 75 nM and 115 nM.
